Residue numbers refer to the chain shown, from its start.
Key:
Type in all cases: biochemical
[1] = molecular target: T1, Escherichia coli PenG amidase (Escherichia coli, UniProt P06875); assay: Amoxycillin synthetic activity inhibition by PAA and PXA; conditions: for relative activity, amoxycillin synthesis amount with the substrate alone set at 100%: 30 mM KPB pH 6.0, 30° C., 1 hour; for inhibition of amoxycillin synthesis (in words): summary of Table 1
T1 construct: purchased Sigma
Experimental: (§1) To 200 μl of a substrate solution prepared by dissolving 6-APA and HPGOMe-HCl in 30 mM KPB (pH 6.0) at the concentration of 0.5%, 10 μl of the enzyme solution obtained in (Examination Example 1) was added. PAA was added to be 0.3% and PXA was added to be 0.35%, and the mixture was subjected to reaction while shaking at 30° C. for 1 hour. Then, 1N HCl was added in 1/20 amount of the substrate to terminate the reaction. The generated amoxycillin was detected using HPLC. The result showing relative activity for the respective enzymes with the amoxycillin synthesis amount reacted by the substrate alone being set at 100% is shown in Table 1.

[2] = system: Stenotrophomonas maltophilia KNK12A strain-derived β-lactam acylase; assay: as above; conditions: for relative activity, amoxycillin synthesis amount with the substrate alone set at 100%: 30 mM KPB pH 6.0, 30° C., 1 hour; for inhibition of amoxycillin synthesis (in words): summary of Table 1
Experimental: as §1

[3] = Comparison of amoxycillin synthesis activity; conditions: 0.5% 6-APA and HPGOMe-HCl, pH 6.0, 30° C., 0-120 minutes; FIG. 3
Experimental: Amoxycillin synthesis activities of the Stenotrophomonas maltophilia KNK12A strain-derived β-lactam acylase and the known Escherichia coli PenG amidase (Sigma) were compared. As an enzyme solution, the fraction obtained in (Example 8) (enzyme concentration: about 3.2 ng/10 μl) was used for the Stenotrophomonas maltophilia KNK12A strain-derived β-lactam acylase, and 100-fold diluted solution (10.2 munit/10 μl, enzyme concentration: about 3.5 ng/10 μl) was used for Escherichia coli PenG amidase.
To 200 μl of a substrate solution prepared by dissolving 6-APA and HPGOMe-HCl in 30 mM KPB (pH 6.0) at the concentration of 0.5%, 10 μl of the enzyme solution was added and the mixture was subjected to reaction while shaking at 30° C. After the lapse of 0, 5, 10, 15, 30, 45, 60, 75, 90, 105 and 120 minutes from the start of the reaction, 1N HCl was added in 1/20 amount of the substrate solution to terminate the reaction. The generated amoxycillin was detected using HPLC.

[4] = Decomposition activity of amoxycillin; conditions: 0.5% amoxycillin, pH 6.0, 30° C., 1 hour; FIG. 4
Experimental: (§2) To 200 μl of a solution prepared by dissolving amoxycillin in 30 mM KPB (pH 6.0) at the concentration of 0.5%, 10 μl of the enzyme solution obtained in (Examination Example 1) was added. The mixture was subjected to reaction for 1 hour while shaking at 30° C., and 1N HCl was added in 1/20 amount of the substrate solution to terminate the reaction.
as §2, with “a liquid” for “a solution”, “reaction” for “reaction for 1 hour”, “30° C. for 1 hour,” for “30° C.,”, “and then” for “and”, “reaction. The remained amoxycillin was detected using HPLC.” for “reaction.”

[5] = Comparison of decomposition activity of HPGOMe; conditions: 0.5% HPGOMe-HCl, pH 6.0, 30° C., 1 hour; FIG. 5
Experimental: To 200 μl of a liquid prepared by dissolving HPGOMe-HCl in 30 mM KPB (pH 6.0) at the concentration of 0.5%, 10μ of the enzyme solution obtained in (Examination Example 1) was added, and the mixture was subjected to reaction while shaking at 30° C. for 1 hour. Then, 1N HCl was added in 1/20 amount of the substrate solution to terminate the reaction. The remained HPGOMe was detected using HPLC.

[6] = Capability comparison examination of a mutant acylase; conditions: compared with unmodified acylase
Experimental: A β-lactam acylase-producing strain pUCNTkmTn5-KNK-L/HB101 strain and 1 amino acid-substituted mutant β-lactam acylase-producing strain pUCNT-Tn5-MuKNK-L1/HB101 strain were inoculated in 10 ml of CM culture medium, and shaking culture was carried out at 37° C. overnight. Cells were recovered from 2 ml of the culture by centrifugation, and suspended in 30 mM KPB (pH 6.0). Then, 1 ml of a substrate (prepared by dissolving 0.5% HPGOMe-HCl and 0.5% 6-APA in 30 mM KPB and adjusted to pH 6.0) was mixed therewith, and the mixture was subjected to reaction at 30° C. After the lapse of 10, 20, 30, 60, 90 and 180 minutes from the start of the reaction, 1N HCl was added in 1/20 amount of the substrate solution to terminate the reaction. Then, the centrifuged supernatant was diluted to 25-fold with 30 mM KPB, and 10 μl thereof was analyzed by HPLC. The amoxycillin conversion efficiency comparison is shown in FIG. 6, and ester decomposition degree comparison of D-p-hydroxyphenylglycine methyl ester (HPGOMe) is shown in FIG. 7.

T1 sequence (P06875 290-846): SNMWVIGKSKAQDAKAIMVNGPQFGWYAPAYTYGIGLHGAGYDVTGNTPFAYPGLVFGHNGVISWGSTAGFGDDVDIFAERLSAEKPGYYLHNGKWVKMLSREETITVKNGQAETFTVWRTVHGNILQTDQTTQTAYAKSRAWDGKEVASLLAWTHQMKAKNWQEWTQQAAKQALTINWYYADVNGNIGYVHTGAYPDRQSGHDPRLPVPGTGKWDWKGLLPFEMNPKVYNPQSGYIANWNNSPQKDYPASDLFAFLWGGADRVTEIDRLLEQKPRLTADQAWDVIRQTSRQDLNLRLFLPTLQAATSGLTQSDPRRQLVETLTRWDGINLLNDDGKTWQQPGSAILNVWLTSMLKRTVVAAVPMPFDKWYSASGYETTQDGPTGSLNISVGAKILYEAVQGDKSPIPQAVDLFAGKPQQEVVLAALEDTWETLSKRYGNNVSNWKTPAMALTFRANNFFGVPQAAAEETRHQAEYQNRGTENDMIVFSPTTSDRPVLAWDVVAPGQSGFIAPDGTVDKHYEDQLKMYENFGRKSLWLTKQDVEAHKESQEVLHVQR
T1 sequence (P06875 27-235): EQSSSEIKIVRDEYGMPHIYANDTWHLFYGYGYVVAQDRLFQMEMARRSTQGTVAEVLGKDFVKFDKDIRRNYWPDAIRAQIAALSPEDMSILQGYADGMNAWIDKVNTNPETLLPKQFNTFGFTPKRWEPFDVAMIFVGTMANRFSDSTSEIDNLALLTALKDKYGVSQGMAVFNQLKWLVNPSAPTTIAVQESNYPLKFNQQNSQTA

Q: For `O=C(O)Cc1ccccc1` [PAA, Phenylacetic Acid], which “relative activity, amoxycillin synthesis amount with the substrate alone set at 100%” value (shortened to “relative activity … at 100%”) ([1]; Substrate + 0.3% PAA) is on record?
A: 0%

Q: And the “inhibition of amoxycillin synthesis (in words)” value (“inhibition” for short) [1]?
A: inhibited

Q: And the “relative activity … at 100%” value ([2]; Substrate + 0.3% PAA)?
A: 107%

Q: What about the “inhibition” value [2] of the same molecule?
A: not inhibited at all, or even in the case there is inhibition, it is slight

Q: With `O=C(O)COc1ccccc1` [PXA, Phenoxyacetic Acid] as the molecule, how does the “relative activity … at 100%” value ([1]; Substrate + 0.35% PXA) read?
A: 0%

Q: And the “inhibition” value [1]?
A: inhibited

Q: And the “relative activity … at 100%” value ([2]; Substrate + 0.35% PXA)?
A: 76%

Q: What about the “inhibition” value [2] of the same molecule?
A: not inhibited at all, or even in the case there is inhibition, it is slight

B1: Stenotrophomonas maltophilia KNK12A strain-derived β-lactam acylase: β-lactam acylase of Stenotrophomonas maltophilia KNK12A, amino acid sequence SEQ ID NO:2, about 70 kDa (protein, listed as Stenotrophomonas maltophilia)
chain: MHVRAVAVAIALSLSSTVLAADTPPMTPDISGKPFIAPDVGRDYDKRVVMVPMRDGTRLYTVIVVPKGAHNAPILLTRTPYDAAGRASRSDSPRMRDLLPQGDEVFVDGGYIRVFQDIRGKYGSEGDYVMTRPLRGPLNNTKVDHSTDAWDTIDWLVKHVPESNGKVGMLGSSYEGFTVVMALTDPHPALKVAAPQSPMVDGWMGDDWLNYGAFRQVNFNYFAMQTEKRGKGTPLPSLGYDDYSTFLRIGSAGDYARFTGVDQLTWWKKLVQHPAYDGFWQGQALDAVMAKTPLKVPTMWLQGLWDQEDMWGANHAYQAMEGRDTGNTHNYLVMGPWRHSQVNYTGNELGALKFEGDTALQFRRDVLKPFFDQYLVDGAPKADTPPVLIYNTGENHWDRLQGWPRSCDKGCTAASKPLYLRAGGKLAFQAPAAGEGDFEEYVSDPAKPVPFVPRPVRFGDRDMWTTWLVKDQRFVDGRPDVLTFITEPLAEPLRIGGAPVVHLQASTSGTDSDWVVKLIDVYPDQEASTPEMGGYELPVSLAIFRGRYRESFSDPKPLAANQVLPYRFDLPNANHVFQKGHRVMVQVQSSLFPLYDRNPQTYVPNIYLAKPGDYQKATQRVWHSAAQASYVDLPVY
Q: Which results are given for B1?
A: amoxycillin synthesis conversion rate [3]: very high conversion rate as compared with Escherichia coli PenG amidase; amoxycillin decomposition speed [4]: slow; decomposition speed of HPGOMe [5]: faster than that of Escherichia coli PenG amidase

B2: mutant β-lactam acylase (protein, listed as Stenotrophomonas maltophilia)
chain: B1 chain with M204V
Q: Which acylase activity ([6]; FIG. 6) does the source give for B2 here?
A: enhanced

Q: And the “ester decomposition activity of the substrate HPGOMe” value ([6]; FIG. 7)?
A: reduced

Source: patent publication US7195892B2, “Acylase gene” (Kaneka Corporation, priority 2002, dated 2007)
